Measurements taken from PMC4780272, “New Concept of the Biosynthesis of 4-Alkyl-L-Proline Precursors of Lincomycin, Hormaomycin, and Pyrrolobenzodiazepines: Could a γ-Glutamyltransferase Cleave the C–C Bond?” (Frontiers in Microbiology, 2016).

Biological target: T1, LmbW (Streptomyces lincolnensis, UniProt A9Y8T3)
T1 construct: gene SLINC_0255; lmbW amplified from LK6 cosmid, cloned in pET42b(+), produced in E. coli BL21(DE3), purified as described for LmbC
T1 sequence (A9Y8T3 1-350): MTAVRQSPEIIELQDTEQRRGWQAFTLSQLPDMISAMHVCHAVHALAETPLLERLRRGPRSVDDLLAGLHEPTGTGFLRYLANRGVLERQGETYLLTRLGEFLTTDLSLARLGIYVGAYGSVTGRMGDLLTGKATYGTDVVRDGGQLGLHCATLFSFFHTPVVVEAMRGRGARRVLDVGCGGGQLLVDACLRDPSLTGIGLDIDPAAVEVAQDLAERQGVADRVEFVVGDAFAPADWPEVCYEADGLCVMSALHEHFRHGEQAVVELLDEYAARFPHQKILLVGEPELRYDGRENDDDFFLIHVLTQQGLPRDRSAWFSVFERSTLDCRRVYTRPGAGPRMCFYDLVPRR
Test: LC-MS of methylated product
Type: biochemical
Conditions: methyl donor; co-substrate 3 4 mM, S-adenosylmethionine 4 mM, glycine buffer 40 mM pH 9.5, 28°C, 1 h

C[S+](CC[C@H](N)C(=O)O)C[C@H]1O[C@@H](n2cnc3c(N)ncnc32)[C@H](O)[C@@H]1O (stereo partly shown) [S-adenosylmethionine]
LC-MS of methylated product: In the reaction with LmbW and S-adenosylmethionine, we identified a product
